This note sets out measurements from patent publication US20210101928A1 (Sage Therapeutics, Inc., priority 2017, published 2021).

Molecules are shown by their SMILES. pIC50: −log10 of the molar value. Where two headings read alike, the source gives them in different places.

This test has as its target GABAA receptor ([35S]-TBPS binding, rat brain cortical membranes). The test can be described thus: Steroid inhibition of [35S]-TBPS binding. The settings on record: in the presence of 5 mM GABA, read-out: TBPS IC50. The method, then:
[^35S]-t-Butylbicyclophosphorothionate (TBPS) binding assays using rat brain cortical membranes in the presence of 5 mM GABA has been described (Gee et al, J. Pharmacol. Exp. Ther. 1987, 241, 346-353; Hawkinson et al, Mol. Pharmacol. 1994, 46, 977-985; Lewin, A. H et al., Mol. Pharmacol. 1989, 35, 189-194).
Briefly, cortices are rapidly removed following decapitation of carbon dioxide-anesthetized Sprague-Dawley rats (200-250 g). The cortices are homogenized in 10 volumes of ice-cold 0.32 M sucrose using a glass/teflon homogenizer and centrifuged at 1500×g for 10 min at 4° C. The resultant supernatants are centrifuged at 10,000×g for 20 min at 4° C. to obtain the P2 pellets. The P2 pellets are resuspended in 200 mM NaCl/50 mM Na—K phosphate pH 7.4 buffer and centrifuged at 10,000×g for 10 min at 4° C. This washing procedure is repeated twice and the pellets are resuspended in 10 volumes of buffer. Aliquots ([…]) of the membrane suspensions are incubated with 3 nM [^35S]-TBPS and […] aliquots of test drug dissolved in dimethyl sulfoxide (DMSO) (final 0.5%) in the presence of 5 mM GABA. The incubation is brought to a final volume of 1.0 mL with buffer. Nonspecific binding is determined in the presence of […] and ranged from 15 to 25%. Following a 90 min incubation at room temp, the assays are terminated by filtration through glass fiber filters (Schleicher and Schuell No. 32) using a cell harvester (Brandel) and rinsed three times with ice-cold buffer. Filter bound radioactivity is measured by liquid scintillation spectrometry. Non-linear curve fitting of the overall data for each drug averaged for each concentration is done using Prism (GraphPad). […] The concentration of test compound producing 50% inhibition (IC50) of specific binding and the maximal extent of inhibition (Imax) are determined for the individual experiments with the same model used for the overall data and then the means±SEM.s of the individual experiments are calculated.
Various compounds are or can be screened to determine their potential as modulators of [^35S]-TBPS binding in vitro. These assays are or can be performed in accordance with the above.

Setting [1] is: Table III-1 (biological data), 3 nM [35S]-TBPS.

The pIC50 is the IC50 on a negative log10 scale, so that one unit is a factor of ten.

As for `CC[C@]12CC[C@@](C)(O)C[C@@H]1CC[C@H]1[C@@H]3CC[C@H](C(=O)CO)[C@@]3(C)CC[C@@H]12` [II-A11, 1-((3R,5S,8S,9S,10S,13S,14S,17S)-10-ethyl-3-hydroxy-3,13-dimethylhexadecahydro-1H-cyclopenta[a]phenanthren-17-yl)-2-hydroxyethan-1-one], the pIC50 (Table II-2, 3 nM [35S]-TBPS) is 7.00 to 8.00. In the case of `CC[C@]12CC[C@](O)(COC)C[C@H]1CC[C@H]1[C@@H]3CC[C@H](C(=O)N4CCCC[C@@H]4C)[C@@]3(C)CC[C@@H]12` [II-B11, ((3R,5R,8S,9S,10S,13S,14S,17S)-10-ethyl-3-hydroxy-3-(methoxymethyl)-13-methylhexadecahydro-1H-cyclopenta[a]phenanthren-17-yl)((S)-2-methylpiperidin-1-yl)methanone], the negative-log IC50 (pIC50) (Table II-2, 3 nM [35S]-TBPS) was 7.00 to 8.00. The same measure, in the same setting: the result for `CCOC[C@@]1(O)CC[C@@]2(CC)[C@H](CC[C@H]3[C@@H]4CC[C@H](C(C)=O)[C@@]4(C)CC[C@@H]32)C1` [II-C4, 1-((3R,5R,8S,9S,10S,13S,14S,17S)-3-(ethoxymethyl)-10-ethyl-3-hydroxy-13-methylhexadecahydro-1H-cyclopenta[a]phenanthren-17-yl)ethan-1-one] reads 7.00 to 8.00; that for `CCOC[C@@]1(O)CC[C@@]2(CC)[C@H](CC[C@H]3[C@@H]4CC[C@H](C(=O)Cn5cc(C#N)cn5)[C@@]4(C)CC[C@@H]32)C1` [II-C8, 1-(2-((3R,5R,8S,9S,10S,13S,14S,17S)-3-(ethoxymethyl)-10-ethyl-3-hydroxy-13-methylhexadecahydro-1H-cyclopenta[a]phenanthren-17-yl)-2-oxoethyl)-1H-pyrazole-4-carbonitrile], over 8.00. Take `CCOC[C@@]1(O)CC[C@@]2(CC)[C@@H](CC[C@H]3[C@@H]4CC[C@H](C(C)=O)[C@@]4(C)CC[C@@H]32)C1` [II-D9]: the negative logarithm of the IC50 (pIC50) (Table II-2, 3 nM [35S]-TBPS) is 7.00 to 8.00. Still for that read-out and setting: the figure for `CCOC[C@@]1(O)CC[C@@]2(CC)[C@@H](CC[C@H]3[C@@H]4CC[C@H](C(=O)N5CCCC[C@@H]5C)[C@@]4(C)CC[C@@H]32)C1` [II-D11, ((3R,5S,8S,9S,10S,13S,14S,17S)-3-(ethoxymethyl)-10-ethyl-3-hydroxy-13-methylhexadecahydro-1H-cyclopenta[a]phenanthren-17-yl)((S)-2-methylpiperidin-1-yl)methanone] is 6.00 to 7.00. Take `CCOC[C@@]1(O)CC[C@@]2(CC)[C@@H](CC[C@H]3[C@@H]4CC[C@H](C(=O)Cn5ccc(C#N)n5)[C@@]4(C)CC[C@@H]32)C1` [II-D13, 1-(2-((3R,5S,8S,9S,10S,13S,14S,17S)-3-(ethoxymethyl)-10-ethyl-3-hydroxy-13-methylhexadecahydro-1H-cyclopenta[a]phenanthren-17-yl)-2-oxoethyl)-1H-pyrazole-3-carbonitrile]: the negative-log IC50 (pIC50) (Table II-2, 3 nM [35S]-TBPS) is 7.00 to 8.00. As to `CC[C@]12CC[C@](O)(COC)C[C@@H]1CC[C@H]1[C@@H]3CC[C@H](C(=O)Nc4ccc(C#N)cc4C)[C@@]3(C)CC[C@@H]12` [II-E6, (3R,5S,8S,9S,10S,13S,14S,17S)-N-(4-cyano-2-methylphenyl)-10-ethyl-3-hydroxy-3-(methoxymethyl)-13-methylhexadecahydro-1H-cyclopenta[a]phenanthrene-17-carboxamide], the pIC50 (Table II-2, 3 nM [35S]-TBPS) was over 8.00.

As to `CC[C@]12CC[C@](O)(COC)C[C@@H]1CC[C@H]1[C@@H]3CC[C@H](C(=O)Cn4ccc(C#N)n4)[C@@]3(C)CC[C@@H]12` [II-E8, 1-(2-((3R,5S,8S,9S,10S,13S,14S,17S)-10-ethyl-3-hydroxy-3-(methoxymethyl)-13-methylhexadecahydro-1H-cyclopenta[a]phenanthren-17-yl)-2-oxoethyl)-1H-pyrazole-3-carbonitrile], the pIC50 (Table II-2, 3 nM [35S]-TBPS) is over 8.00. For the compound `CO[C@H](C)[C@]12CC[C@@](C)(O)C[C@H]1CC[C@H]1[C@@H]3CC[C@H](C(=O)Cn4nnnc4C)[C@@]3(C)CC[C@@H]12` [II-E13, 1-((3R,5R,8S,9S,10R,13S,14S,17S)-3-hydroxy-10-((R)-1-methoxyethyl)-3,13-dimethylhexadecahydro-1H-cyclopenta[a]phenanthren-17-yl)-2-(5-methyl-1H-tetrazol-1-yl)ethan-1-one], the pIC50 (Table II-2, 3 nM [35S]-TBPS) was 6.00 to 7.00. With `CC[C@]12CC[C@@](C)(O)C[C@H]1CC[C@H]1[C@@H]3CC[C@H](C(=O)Nc4ccccc4)[C@@]3(C)CC[C@@H]12` [II-G3, (3R,5R,8S,9S,10S,13S,14S,17S)-10-ethyl-3-hydroxy-3,13-dimethyl-N-phenylhexadecahydro-1H-cyclopenta Ialphenanthrene-17-carboxamide], the pIC50 (Table II-2, 3 nM [35S]-TBPS) is over 8.00.

As for `CC[C@]12CC[C@@](C)(O)C[C@H]1CC[C@H]1[C@@H]3CC[C@H](C(=O)c4ccccc4C)[C@@]3(C)CC[C@@H]12` [II-G5, ((3R,5R,8S,9S,10S,13S,14S,17S)-10-ethyl-3-hydroxy-3,13-dimethylhexadecahydro-1H-cyclopenta [a]phenanthren-17-yl)(o-tolyl)methanone], the negative logarithm of the IC50 (pIC50) (Table II-2, 3 nM [35S]-TBPS) is 7.00 to 8.00. For the compound `CC[C@]12CC[C@H]3[C@@H](CC[C@@H]4C[C@](C)(O)CC[C@@H]43)[C@@H]1CC[C@@H]2C(=O)Cn1cc(C#N)cn1` [III-A10, 1-(2-((3R,5R,8R,9R,10S,13S,14S,17S)-13-ethyl-3-hydroxy-3-methylhexadecahydro-1H-cyclopenta[a]phenanthren-17-yl)-2-oxoethyl)-1H-pyrazole-4-carbonitrile], the negative logarithm of the IC50 (pIC50) under setting [1] was over 8.00. Still for that read-out and setting: the figure for `CC[C@]12CC[C@H]3[C@@H](CC[C@H]4C[C@@](O)(COC)CC[C@@H]43)[C@@H]1CC[C@@H]2C(C)=O` [III-A20, 1-((3R,5S,8R,9R,10S,13S,14S,17S)-13-ethyl-3-hydroxy-3-(methoxymethyl)hexadecahydro-1H-cyclopenta [a]phenanthren-17-yl)ethan-1-one] is 7.00 to 8.00; for `CC[C@]12CC[C@H]3[C@@H](CC[C@H]4C[C@@](O)(COC)CC[C@@H]43)[C@@H]1CC[C@@H]2C(=O)Cn1nnc(C)n1` [III-A22, 1-((3R,5S,8R,9R,10S,13S,14S,17S)-13-ethyl-3-hydroxy-3-(methoxymethyl)hexadecahydro-1H-cyclopenta [a]phenanthren-17-yl)-2-(5-methyl-2H-tetrazol-2-yl)ethan-1-one] it is over 8.00. As to `CC[C@]12CC[C@H]3[C@@H](CC[C@H]4C[C@@](O)(COC)CC[C@@H]43)[C@@H]1CC[C@@H]2C(=O)Cn1nnnc1C` [III-A23, 1-((3R,5S,8R,9R,10S,13S,14S,17S)-13-ethyl-3-hydroxy-3-(methoxymethyl)hexadecahydro-1H-cyclopenta[a]phenanthren-17-yl)-2-(5-methyl-1H-tetrazol-1-yl)ethan-1-one], the pIC50 under setting [1] was 6.00 to 7.00. On to `CC[C@]12CC[C@H]3[C@@H](CC[C@@H]4C[C@](C)(O)CC[C@@]43C)[C@@H]1CC[C@@H]2C(C)=O` [III-A30, 1-((3R,5R,8R,9S,10S,13S,14S,17S)-13-ethyl-3-hydroxy-3,10-dimethylhexadecahydro-1H-cyclopenta [a]phenanthren-17-yl)ethan-1-one], for which the negative logarithm of the IC50 (pIC50) under setting [1] is over 8.00. In the case of `CC[C@]12CC[C@H]3[C@@H](CC[C@@H]4C[C@](C)(O)CC[C@@]43C)[C@@H]1CC[C@@H]2C(=O)Cn1nnc(C)n1` [III-A33], the pIC50 under setting [1] is over 8.00.

Consider `CC[C@]12CC[C@H]3[C@@H](CC[C@@H]4C[C@@](O)(COC)CC[C@@H]43)[C@@H]1CC[C@@H]2C(C)=O` [III-B15, 1-((3R,5R,8R,9R,10S,13S,14S,17S)-13-ethyl-3-hydroxy-3-(methoxymethyl)hexadecahydro-1H-cyclopenta[a]phenanthren-17-yl)ethan-1-one], for which the pIC50 under setting [1] is 7.00 to 8.00. Take `CC[C@]12CC[C@H]3[C@@H](CC[C@@H]4C[C@@](O)(COC)CC[C@@H]43)[C@@H]1CC[C@@H]2C(=O)Cn1cc(C#N)cn1` [III-B17, 1-(2-((3R,5R,8R,9R,10S,13S,14S,17S)-13-ethyl-3-hydroxy-3-(methoxymethyl)hexadecahydro-1H-cyclopenta[a]phenanthren-17-yl)-2-oxoethyl)-1H-pyrazole-4-carbonitrile]: the pIC50 under setting [1] was 7.00 to 8.00.

As for `COC[C@]12CC[C@H]3[C@@H](CC[C@@H]4C[C@](C)(O)CC[C@@H]43)[C@@H]1CC[C@@H]2C(C)=O` [III-C11, 1-((3R,5R,8R,9R,10S,13R,14S,17S)-3-hydroxy-13-(methoxymethyl)-3-methylhexadecahydro-1H-cyclopenta[a]phenanthren-17-yl)ethan-1-one], the pIC50 under setting [1] is 7.00 to 8.00.
